We go through 95 compounds from PubChem BioAssay AID602234 (The Scripps Research Institute Molecular Screening Center, 2012).

This experiment is described as follows: SRC3 coactivator transcriptional activity inhibitors, dose response, counter-screen for SRC1 inhibitor project, cell-based, luminescence (AID 602234).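 Further: HEK293 cells co-transfected with pGL4.31 reporter and pBIND-SRC3 fusion vector; potency for inhibition of reporter luminescence with Gossypol as full inhibition.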 The following applies: transfected HEK293 cells, counter-screen luciferase reporter.

Activity calls are given as the source filed them. How the calls were made is not given here.

`Nc1ccn([C@@H]2O[C@H](CO)[C@@H](O)C2O)c(=O)n1` (stereo not given in full): the concentration for half-maximal inhibition (IC50) was 7.53 µM.

For the compound `COC(=O)c1sc2cnccc2c1N`, the IC50 is 8.34 µM.

On to `CCn1ccnc1CN(C)Cc1cn[nH]c1-c1ccc(F)cc1F`, for which the half-maximal inhibitory concentration (IC50) was 8.02 µM. As to `COc1ccc(C(O)(C(C)C)C(CN2CCOCC2)c2ccc(Cl)cc2)cc1` (stereo not given), the IC50 was 13.4 µM (inactive).

Take `COc1ccc(OC)c(/C=C2\NC(=O)NC2=O)c1`: the concentration for half-maximal inhibition (IC50) was 5.99 µM. On to `CC1CC(C)C(=NNC(N)=O)C(C(O)CC2CCC(=O)NC2=O)C1` (stereo not given), for which the IC50 is 7.99 µM. Consider `Oc1ccc(C=NNc2ccccn2)c(O)c1`, for which the IC50 was 6.53 µM. Turning to `O=C(Nc1c(-c2ccccc2)[nH][nH]c1=O)c1cccc(C(F)(F)F)c1`, the IC50 is > 35.8 µM (inactive). Consider `Nc1ncccc1C(=O)OCC(=O)N1CCN(S(=O)(=O)c2ccc(Cl)cc2)CC1`, for which the IC50 was 8.27 µM. Turning to `O=C(N/N=C/c1cc([N+](=O)[O-])ccc1O)c1cccc(N2CCCC2=O)c1`, the IC50 was > 12 µM (inactive). With `N#Cc1c2ccc(O)cc2n2ccccc12` the figure was 1.38 µM; with `Cc1ccc(N=c2c([N+](=O)[O-])nn(-c3ccc4c(c3)OCCO4)n2O)cc1F`, 3.24 µM; with `Cc1nc2sc(C(N)=O)c(N)c2c(C)c1CC(=O)c1ccccc1`, 2.63 µM.

For the compound `CNc1cccnc1C=NNC(N)=S`, the 50% inhibitory concentration (IC50) was 0.522 µM. In the case of `Cc1ccc(OCC(=O)c2cc(C)n(-c3ccccc3)c2C)c([N+](=O)[O-])n1`, the IC50 was 2.46 µM.

As to `O=C(N/N=C/c1ccc(O)cc1O)/C(=C/c1ccccc1)CCO`, the IC50 was 5.37 µM.

On to `Cc1cc(/C=C2\Cc3ccccc3C2=O)c(C)n1-c1ccccc1`, for which the IC50 was 8.76 µM. Then `COc1cccc(CNc2ncnc3ccc(-c4c(C)noc4C)cc23)c1`, with 9.92 µM; and `COC(CN(C(=O)CCl)C(C(=O)NC1CCCCC1)c1ccccc1C)OC` (stereo not given), with 3.76 µM.

On to `COc1ccc(Oc2nc3c(c(=O)n(C)c(=O)n3C)n2C)cc1`, for which the IC50 is 7.76 µM.

As for `CN(C)c1ccc(Nc2ncnc3ccc(Br)cc23)cc1`, the concentration for half-maximal inhibition (IC50) is 2.09 µM. Regarding `Cc1ccc(O)c(C(=O)c2cnn(C(=O)COc3ccc(Cl)cc3)c2)c1`, the concentration for half-maximal inhibition (IC50) was 7.96 µM. Then `CCN(CC)CCNC(=O)c1ccc(NC(=O)C2CCN(c3ncnc4sc(C)c(C)c34)CC2)cc1`, with 3.94 µM; and `O=C(CSc1nc(-c2cccs2)cc(C(F)(F)F)n1)Nc1cc(OCC(F)(F)C(F)F)cc([N+](=O)[O-])c1`, with > 35.9 µM (inactive). As to `NS(=O)(=O)c1ccc(Nc2nc(-c3cccnc3)cs2)cc1`, the 50% inhibitory concentration (IC50) is 6.23 µM. Then `O=C(OC(c1ccccc1)c1nccc2ccccc12)c1ccccc1` (stereo not given), with 0.661 µM; and `C=CCNc1ncnc2ccc(Br)cc12`, with 2.3 µM; and `Cc1nc2c(-c3ccc(F)cc3)cnn2c(N)c1-c1ccccc1`, with 11.4 µM (inactive).

For the compound `COc1ccccc1NS(=O)(=O)c1cccc(NC(=O)c2cncc(Br)c2)c1`, the IC50 was 7.71 µM.

In the case of `Cc1noc(/C=C/c2ccco2)c1S(=O)(=O)N1CCC(C(=O)Nc2ccc(Cl)cn2)CC1`, the IC50 was 11.3 µM (inactive). Consider `O=C(NC(=S)Nc1ccc(N2CCN(C(=O)c3ccccc3)CC2)cc1)c1cccs1`, for which the IC50 is 7.01 µM.

Regarding `Cc1nn(CC(=O)N2CCN(c3cccc(C(F)(F)F)c3)CC2)c(=O)c2cccn12`, the concentration for half-maximal inhibition (IC50) is 5.11 µM. Then `COc1ccc(-c2cnc(N)nc2-c2ccc(OC)cc2O)cc1`, with 7.07 µM; and `Cn1c(=O)c2[nH]c(COc3ccc(C(C)(C)C)cc3)nc2n(C)c1=O`, with 3.85 µM; and `CCn1c2ccccc2c2cnc(N=CN(C)C)c(C#N)c21`, with 11.3 µM (inactive). Then `C=CCn1c(Oc2ccccc2F)nc2c1c(=O)n(C)c(=O)n2C`, with 3.36 µM; and `CCCS(=O)(=O)c1c(S(=O)(=O)CCC)c2c(C)cccn2c1C(=O)N/N=C/c1cc(O)cc(O)c1`, with 10.2 µM (inactive). Then `O=[N+]([O-])c1ccc2c(c1)-c1ccccc1C2=NO`, with 3.34 µM. `Fc1ccc(CSc2nnc(-c3ccncc3)o2)cc1`: the 50% inhibitory concentration (IC50) is 2.69 µM. As to `CC(C)n1c(SCC(=O)Nc2nc3c(s2)CCCC3)nc2c1c(=O)n(C)c(=O)n2C`, the IC50 was 5.86 µM. With `CC(=O)c1cccc(NC(=O)COc2cc3oc(=O)c(CC(C)O)c(C)c3cc2Cl)c1` (stereo not given) the figure was 6.25 µM; with `Cc1cccn2c(=O)c3cc(C(=O)NCCN4CCOCC4)c(=N)n(Cc4cccnc4)c3nc12`, 12.7 µM (inactive).

For the compound `Cc1ccc(S(=O)(=O)N2[C@@H](c3ccc(C(C)(C)C)cc3)C(C(=O)O)=CC[C@H]2c2ccc(Cl)cc2)cc1`, the IC50 was 10.4 µM (inactive). Then `NNC(=O)c1cc2ccccc2cc1O`, with 1.57 µM; and `CC(=O)NC(c1cc(Cl)c2cccnc2c1O)C(C)C` (stereo not given), with 6.32 µM; and `COc1ccccc1N(C(=O)CCl)c1cn(C(C)=O)c2ccccc12`, with 3.76 µM. Then `COc1cccc(NC(=O)CN(C)CC(=O)Nc2ccc(Cl)cc2[N+](=O)[O-])c1`, with 17.8 µM (inactive); and `Cc1ccc(NC(=O)NC2CC(=O)N(c3ccc4c(c3)OCCO4)C2)cc1C` (stereo not given), with 1.08 µM; and `CCOc1cc(C(N)=O)cc(Br)c1OC`, with 6.86 µM. With `Cc1ccc(C)c(NC(=O)c2ccccc2NS(=O)(=O)c2cc([N+](=O)[O-])ccc2C)c1`, the 50% inhibitory concentration (IC50) is 1.44 µM. With `NC(=S)NN=Cc1nccc2c(N)cccc12`, the IC50 was 4.45 µM. For the compound `O=C(CCn1cnc(-c2ccccc2)c1-c1ccccc1)N/N=C/c1ccccc1O`, the IC50 is 12.2 µM (inactive). On to `COc1ccccc1/C=C\C(=O)NCC(=O)N/N=C/c1cccc(OC)c1O`, for which the IC50 was 12.9 µM (inactive). Then `COc1cc2c3c([nH]c2cc1F)C(=O)NCC3`, with 3.73 µM; and `OCCN(CCO)CC(O)COc1ccc(C23CC4CC(CC(C4)C2)C3)cc1` (stereo not given), with 12.1 µM (inactive). Then `c1nc2sc3c(c2c2nnnn12)CCCC3`, with 9.84 µM. Then `O=[N+]([O-])c1cccc2c1ccc1ncccc12`, with 10.3 µM (inactive); and `C=CCn1c(O)c(C(C)=NCc2cc(OC)cc(OC)c2)c(=O)[nH]c1=O`, with 1.02 µM; and `O=C(N/N=C/c1coc2ccc(Cl)cc2c1=O)c1ccc(O)cc1`, with 3.61 µM.

With `Cc1ccccc1C(=O)/C(C#N)=N/Nc1c(C)n(C)n(-c2ccccc2)c1=O`, the IC50 was 3.53 µM.

As for `Cc1sc2ncnc(N3CCC(C(=O)N(C)CC(=O)Nc4cccc(F)c4)CC3)c2c1C`, the IC50 was 8.1 µM. For the compound `O=C(CCl)N1N=C(c2ccco2)CC1c1cccs1` (stereo not given), the IC50 is 0.694 µM.

Consider `NC(=S)NN=Cc1ccc(OC(=O)COc2cc(Cl)c(Cl)cc2Cl)cn1`, for which the IC50 is 7.06 µM. Then `C=C1C(=O)[C@@]23C[C@H]4[C@@H]5[C@@]6(C)CCC[C@@]57[C@@H]2[C@@H](O)[C@@H]1C[C@H]3[C@H]7N4C6`, with 4.39 µM. Then `O=C(NC(NC(=S)N1CCOCC1)C(Cl)(Cl)Cl)c1ccc(Cl)cc1` (stereo not given), with 3.94 µM; and `NC(=S)NN=Cc1nccc2ccccc12`, with 0.434 µM. Take `COc1ccc2[nH]c(=O)c(CN(CCN3CCCC3)C(=O)Nc3ccccc3Cl)cc2c1`: the half-inhibitory concentration (IC50) is 8.7 µM. For `Cc1ccc(N(Cc2cc(=O)[nH]c3ccccc23)C(=O)CCl)c(C)c1`, the half-inhibitory concentration (IC50) was 2.67 µM. Then `COc1ccc2c(C#N)c3ccccn3c2c1`, with 11.2 µM (inactive); and `Cc1ccc(/C=C2/SC(=S)N(CCCC(=O)Nc3ccc(O)cc3)C2=O)cc1`, with 3.23 µM.

As to `COc1cc2c(cc1OC)C(NC(=O)C(F)(F)F)CNC2=O` (stereo not given), the IC50 was 2.62 µM.

Take `CCOc1ccc(/C=C2\SC(=S)N(CCC(=O)O)C2=O)cc1`: the IC50 was 2.12 µM.

As to `CN(CC(=O)Nc1ccc(Cl)c(C(F)(F)F)c1)C(=O)C1CC(=O)N(c2ccc3c(c2)OCCO3)C1` (stereo not given), the IC50 is 7.04 µM.

`CCCS(=O)(=O)Nc1ccc(Nc2c3ccccc3nc3ccccc23)c(OC)c1`: the IC50 is 1.01 µM. In the case of `S=C(c1ccc(-c2ccccc2)cc1)N1CCOCC1`, the 50% inhibitory concentration (IC50) is 7.59 µM. With `COc1ccc(/C=C2\CC/C(=C\c3ccc(OC)c(OC)c3)C2=O)cc1OC` the figure was 5.96 µM; with `O=C(N/N=C(\c1ccccc1)c1ccccn1)c1ccccc1Cl`, 4.57 µM.

In the case of `COc1cc(C(=O)N/N=C(\c2ccccc2)c2ccccn2)cc(OC)c1OC`, the IC50 is 9.58 µM.

In the case of `Cc1cccc(C)c1-n1nnnc1C(c1cccs1)N1CCC2(CC1)C(=O)NCN2c1ccccc1` (stereo not given), the IC50 is 18.9 µM (inactive). For `O=C(Nc1cccc2c1CCCC2)c1cc([N+](=O)[O-])ccc1Cl`, the IC50 was 3.47 µM. With `CCC(=O)c1ccc(Oc2nc3c(c(=O)n(C)c(=O)n3C)n2CC)cc1` the figure was 2.87 µM; with `COc1cccc(C2=CC(=O)CC(C)(C)C2)c1`, 6.27 µM. As to `Cc1ccc(OCC(=O)c2cc(C)n(Cc3cccs3)c2C)c([N+](=O)[O-])n1`, the IC50 is 5.23 µM.

As to `CCN(C(=O)c1cccc(S(=O)(=O)N(C)C)c1)C12CC3CC(CC(C3)C1)C2`, the IC50 is 13.8 µM (inactive). Regarding `C=CCc1ccccc1OCC(=O)N/N=C/c1ccc(OC(C)=O)cc1OC(C)=O`, the IC50 was 22.4 µM (inactive). Then `COc1ccc(-n2cnc3c(sc4nccc(N(C)C)c43)c2=O)cc1`, with 11 µM (inactive).

As for `COc1ccc(-c2ncncc2-c2ccccc2)c(O)c1`, the IC50 was 4.24 µM.

Regarding `Cc1c(CC(=O)NCCCC(=O)O)c(=O)oc2cc3c(cc12)CCC(C)(C)O3`, the IC50 is 3.86 µM.

For `COc1ccccc1CNC(=O)C(=O)NCCC1CCCCN1S(=O)(=O)c1ccc(C)cc1` (stereo not given), the IC50 was 10.2 µM (inactive). For `NC(=O)c1cc(Sc2ccccc2)nc2ccccc12`, the IC50 was 10.9 µM (inactive). Then `Cc1cc(C)nc(SCc2ccc(C(=O)N/N=C/c3cccc(O)c3O)cc2)n1`, with 4.72 µM. Then `Cc1ccc2occ(/C=N/NC(=O)[C@@H](N)Cc3ccccc3)c(=O)c2c1`, with 6.9 µM; and `O=C(CCC1CCCC1)Nc1ccc(C(=O)NCc2cccnc2)cc1`, with 34.2 µM (inactive). With `CCn1c(Oc2ccc(F)cc2)nc2c1c(=O)n(C)c(=O)n2C` the figure was 3.24 µM; with `CC(C)(C)NC(=O)C1(C)CCC(=O)N1CCCn1ccnc1` (stereo not given), 4.51 µM.
